Values joined by “and” are separate entries in the source; they are usually repeats but may differ in a detail not shown here. Equal values may be shown once. Toxic doses and inconclusive results are not listed. Non-standard residues stand in square brackets, D forms with d. Residues, ends and D or L forms follow the SMILES beside them. ξ: configuration not given here. *: point of attachment. Cbz = O=C(OCc1ccccc1)*; Boc = CC(C)(C)OC(=O)*; ξK = NCCCCC(N)C(=O)O; OBn = c1ccc(CO*)cc1
Tested on: BDF1 mice, P388 leukemia ip, median survival T/C
Experiment: NCI In Vivo Anticancer Drug Screen. Data for tumor model P388 Leukemia (intraperitoneal) in B6D2F1 (BDF1) mice
Details: endpoint: median survival time, higher = longer survival
Summary of the method: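 Vehicle-dosed animals serve as the reference; survival of compound-dosed, tumour-implanted mice is divided by it.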

[1] = dose: 100.0 mg/kg/injection, schedule: Q01DX009 (ip), vehicle: Klucel (hydroxypropylcellulose) (HPC)
[2] = dose: 100.0 mg/kg/injection, schedule: Q04DX003 (ip), vehicle: Klucel (hydroxypropylcellulose) (HPC)
[3] = dose: 200.0 mg/kg/injection, schedule: Q01DX009 (ip), vehicle: Klucel (hydroxypropylcellulose) (HPC)
[4] = dose: 200.0 mg/kg/injection, schedule: Q04DX003 (ip), vehicle: Klucel (hydroxypropylcellulose) (HPC)
[5] = dose: 400.0 mg/kg/injection, schedule: Q01DX009 (ip), vehicle: Klucel (hydroxypropylcellulose) (HPC)
[6] = dose: 400.0 mg/kg/injection, schedule: Q04DX003 (ip), vehicle: Klucel (hydroxypropylcellulose) (HPC)
[7] = dose: 50.0 mg/kg/injection, schedule: Q01DX009 (ip), vehicle: other
[8] = dose: 100.0 mg/kg/injection, schedule: Q04DX003 (ip), vehicle: saline with Tween-80
[9] = dose: 200.0 mg/kg/injection, schedule: Q04DX003 (ip), vehicle: saline with Tween-80
[10] = dose: 400.0 mg/kg/injection, schedule: Q04DX003 (ip), vehicle: saline with Tween-80
[11] = dose: 50.0 mg/kg/injection, schedule: Q01DX009 (ip), vehicle: Klucel (hydroxypropylcellulose) (HPC)
[12] = dose: 62.5 mg/kg/injection, schedule: Q01DX010 (ip), vehicle: saline
[13] = dose: 125.0 mg/kg/injection, schedule: Q01DX010 (ip), vehicle: saline
[14] = dose: 250.0 mg/kg/injection, schedule: Q01DX010 (ip), vehicle: saline
[15] = dose: 100.0 mg/kg/injection, schedule: Q01DX009 (ip), vehicle: saline with Tween-80
[16] = dose: 50.0 mg/kg/injection, schedule: Q01DX009 (ip), vehicle: saline with Tween-80
[17] = dose: 200.0 mg/kg/injection, schedule: Q01DX009 (ip), vehicle: saline with Tween-80
[18] = dose: 12.5 mg/kg/injection, schedule: Q01DX009 (ip), vehicle: saline

CCCCSCC(N)C(=O)O (stereo not drawn)
T/C [1]: 116 % of control | T/C [2]: 104 % of control | T/C [3]: 121 % of control | T/C [4]: 104 % of control | T/C [5]: 111 % of control | T/C [6]: 95 % of control

CN(C)C(=O)c1ccc(C(C)(C)C)cc1
T/C (dose: 12.5 mg/kg/injection, schedule: Q01DX009 (ip), vehicle: other): 104 % of control | T/C (dose: 12.5 mg/kg/injection, schedule: Q04DX003 (ip), vehicle: other): 106 % of control | T/C (dose: 25.0 mg/kg/injection, schedule: Q01DX009 (ip), vehicle: other): 103 % of control | T/C (dose: 25.0 mg/kg/injection, schedule: Q04DX003 (ip), vehicle: other): 121 % of control | T/C [7]: 113 % of control | T/C (dose: 50.0 mg/kg/injection, schedule: Q04DX003 (ip), vehicle: other): 97 % of control | T/C (dose: 100.0 mg/kg/injection, schedule: Q01DX009 (ip), vehicle: other): 101 % of control | T/C (dose: 100.0 mg/kg/injection, schedule: Q04DX003 (ip), vehicle: other): 106 % of control | T/C (dose: 200.0 mg/kg/injection, schedule: Q04DX003 (ip), vehicle: other): 95 % of control

CCCO/C(N)=N/OS(=O)(=O)c1ccccc1
T/C [8]: 97 % of control | T/C [9]: 99 % of control | T/C [10]: 96 % of control

OC(CBr)C(O)C(O)C(O)CBr (stereo not drawn)
T/C [11]: 105 % of control | T/C [12]: 104 % of control | T/C (dose: 125.0 mg/kg/injection, schedule: Q01DX001 (ip), vehicle: carboxymethylcellulose (CMC)): 120 % of control | T/C (dose: 125.0 mg/kg/injection, schedule: Q01DX010 (ip), vehicle: carboxymethylcellulose (CMC)): 105 % of control | T/C [13]: 108 % of control | T/C (dose: 250.0 mg/kg/injection, schedule: Q01DX010 (ip), vehicle: carboxymethylcellulose (CMC)): 110 % of control | T/C [14]: 91 % of control | T/C [5]: 87 % of control | T/C (dose: 1000.0 mg/kg/injection, schedule: Q01DX001 (ip), vehicle: carboxymethylcellulose (CMC)): 170 % of control

COc1ccc2c(Cl)cc(NC(=O)Nc3c(C)cccc3C)nc2c1
T/C [15]: 88 % of control

C=CCc1ccccc1C=O
T/C [8]: 97 % of control | T/C [9]: 95 % of control | T/C [10]: 97 % of control

CCc1ccc(NC(=O)c2cccc(Cl)c2)cc1
T/C [8]: 109 % of control | T/C [9]: 109 % of control | T/C [10]: 109 % of control

CC(=O)Nc1ccc(/C=N/Nc2ccc([N+](=O)[O-])cn2)cc1
T/C [12]: 95 % of control | T/C (dose: 100.0 mg/kg/injection, schedule: Q04DX003 (ip), vehicle: saline sonified): 105 % of control | T/C [13]: 90 % of control | T/C (dose: 200.0 mg/kg/injection, schedule: Q04DX003 (ip), vehicle: saline sonified): 105 % of control | T/C [14]: 100 % of control | T/C (dose: 400.0 mg/kg/injection, schedule: Q04DX003 (ip), vehicle: saline sonified): 100 % of control

COn1nnc2c([N+](=O)[O-])cccc21
T/C [16]: 109 % of control

O=C(Nc1ccc(F)cc1F)Oc1cccc2cccnc12
T/C [11]: 104 % of control | T/C [1]: 106 % of control | T/C [3]: 113 % of control | T/C [5]: 104 % of control

Cc1c(O)c2c(c(O)c1Cc1ccc(CN)cc1)C(=O)c1ccccc1C2=O
T/C (dose: 12.5 mg/kg/injection, schedule: Q01DX009 (ip), vehicle: water): 90 % of control | T/C (dose: 25.0 mg/kg/injection, schedule: Q01DX009 (ip), vehicle: water): 114 % of control

CC(/C=C/c1ccccc1)=Nc1ccc(C)cc1
T/C [8]: 104 % of control | T/C [9]: 101 % of control | T/C [10]: 104 % of control

O=C(NC(C(=O)O)C(O)c1cn(C(=O)OCc2ccccc2)cn1)OCc1ccccc1 (stereo not drawn)
T/C [16]: 113 % of control | T/C [15]: 110 % of control | T/C [17]: 98 % of control

C=CCNCCN1CCN(CCCN2c3ccccc3Sc3ccc(C(F)(F)F)cc32)CC1
T/C (dose: 6.25 mg/kg/injection, schedule: Q04DX003 (ip), vehicle: saline): 108 % of control and 110 % of control | T/C (dose: 12.5 mg/kg/injection, schedule: Q04DX003 (ip), vehicle: saline): 87 % of control and 110 % of control | T/C (dose: 25.0 mg/kg/injection, schedule: Q04DX003 (ip), vehicle: saline): 100 % of control and 118 % of control | T/C (dose: 50.0 mg/kg/injection, schedule: Q04DX003 (ip), vehicle: saline): 116 % of control

CCO/C=C/C=C1C(=O)N(C)C(=O)N(C)C1=O
T/C [7]: 122 % of control

CC(=O)OC1(C)N=NC2(CCCCC2)O1 (stereo not drawn)
T/C [16]: 102 % of control | T/C [15]: 98 % of control | T/C [17]: 112 % of control

c1ccc(C2SCSCS2)cc1
T/C [2]: 100 % of control | T/C [4]: 95 % of control | T/C [6]: 95 % of control

N=C(N)SCc1c2ccccc2cc2ccccc12
T/C [9]: 163 % of control | T/C (dose: 300.0 mg/kg/injection, schedule: Q04DX003 (ip), vehicle: saline with Tween-80): 90 % of control

S=C(Cc1ccccc1)N1CCN(c2ccc(Cl)cc2)CC1
T/C [16]: 104 % of control | T/C [15]: 100 % of control | T/C [17]: 100 % of control

CNc1ccc([N+](=O)[O-])c2no[n+]([O-])c12
T/C (dose: 15.0 mg/kg/injection, schedule: Q01DX009 (ip), vehicle: saline with Tween-80): 90 % of control | T/C (dose: 30.0 mg/kg/injection, schedule: Q01DX009 (ip), vehicle: saline with Tween-80): 93 % of control | T/C (dose: 60.0 mg/kg/injection, schedule: Q01DX009 (ip), vehicle: saline with Tween-80): 102 % of control

Nc1nc2ncc(CNc3ccc(C(=O)NC(CCC(=O)O)C(=O)O)cn3)nc2c(=O)[nH]1 (stereo not drawn)
T/C (dose: 37.5 mg/kg/injection, schedule: Q01DX009 (ip), vehicle: saline with Tween-80): 92 % of control | T/C (dose: 62.5 mg/kg/injection, schedule: Q01DX009 (ip), vehicle: saline with Tween-80): 92 % of control | T/C (dose: 75.0 mg/kg/injection, schedule: Q01DX009 (ip), vehicle: saline with Tween-80): 107 % of control

N#Cc1nc2ccccc2nc1C#N
T/C (dose: 12.5 mg/kg/injection, schedule: Q01DX009 (ip), vehicle: Klucel (hydroxypropylcellulose) (HPC)): 106 % of control | T/C (dose: 25.0 mg/kg/injection, schedule: Q01DX009 (ip), vehicle: Klucel (hydroxypropylcellulose) (HPC)): 99 % of control

C[C@]12C[C@@H](F)C(=O)C[C@@H]1CC[C@@H]1[C@@H]2CC[C@]2(C)[C@@H](O)CC[C@@H]12
T/C [15]: 95 % of control | T/C [8]: 110 % of control | T/C [17]: 95 % of control | T/C [9]: 100 % of control | T/C (dose: 400.0 mg/kg/injection, schedule: Q01DX009 (ip), vehicle: saline with Tween-80): 100 % of control | T/C [10]: 105 % of control

CCN(CC)CC1CO1 (stereo not drawn)
T/C [18]: 100 % of control

COC(OC)C1(O)CC(C(C)COC2CCCCO2)OC(=O)N1 (stereo not drawn)
T/C (dose: 50.0 mg/kg/injection, schedule: Q04DX003 (ip), vehicle: Klucel (hydroxypropylcellulose) (HPC)): 102 % of control | T/C [2]: 106 % of control | T/C [4]: 106 % of control

CC1=C(O)C(O)C2OC2C1=O (stereo not drawn)
T/C [18]: 96 % of control | T/C (dose: 25.0 mg/kg/injection, schedule: Q01DX009 (ip), vehicle: saline): 87 % of control | T/C (dose: 50.0 mg/kg/injection, schedule: Q01DX009 (ip), vehicle: saline): 107 % of control

CCOC(=O)N1CCN(C(=O)OCC)CC1
T/C [16]: 100 % of control | T/C [15]: 100 % of control | T/C [8]: 90 % of control | T/C [17]: 95 % of control

CC(C)(C)OC(=O)NCC(=O)NC(CCCCNC(=O)OCc1ccccc1)C(=O)OCc1ccccc1 (stereo not drawn) (Boc-Gly-[ξK](Cbz)-OBn)
T/C (dose: 50.0 mg/kg/injection, schedule: Q01DX005 (ip), vehicle: saline with Tween-80): 95 % of control | T/C (dose: 100.0 mg/kg/injection, schedule: Q01DX005 (ip), vehicle: saline with Tween-80): 90 % of control | T/C (dose: 200.0 mg/kg/injection, schedule: Q01DX005 (ip), vehicle: saline with Tween-80): 104 % of control

Cc1ccc(-c2cc(-c3ccccc3)n(-c3ccccc3)n2)cc1
T/C (dose: 264.0 mg/kg/injection, schedule: Q04DX003 (ip), vehicle: Klucel (hydroxypropylcellulose) (HPC)): 108 % of control and 109 % of control | T/C [6]: 104 % of control and 116 % of control

COc1ccc2c(c1OC(C)=O)-c1cc(OC(C)=O)cc3c1C(C2)N(C(=O)CBr)CC3 (stereo not drawn)
T/C (dose: 6.25 mg/kg/injection, schedule: Q01DX009 (ip), vehicle: saline with Tween-80): 105 % of control | T/C (dose: 12.5 mg/kg/injection, schedule: Q01DX009 (ip), vehicle: saline with Tween-80): 106 % of control | T/C (dose: 25.0 mg/kg/injection, schedule: Q01DX009 (ip), vehicle: saline with Tween-80): 116 % of control | T/C [16]: 88 % of control and 114 % of control
